{"source": "patent US20230181614A1", "about": "“ADMINISTRATION OF CITICOLINE TO IMPROVE COGNITIVE PERFORMANCE, ATTENTIONAL PERFORMANCE, AND MOTOR FUNCTION” (KYOWA HAKKO BIO CO., LTD., priority 2014, published 2023)", "key": {"[1]": {"tested_on": "Healthy subjects, ages 13-18", "test": "Children's Depression Rating Scale (CDRS)", "type": "in vivo, human", "conditions": "for CDRS Score, Mean: V3-V1", "excerpt": "Study participants were screened by telephone prior to study enrollment. Healthy subjects, ages 13-18, with no significant medical conditions and no history of co-morbid psychiatric disorder, current Axis I or II diagnosis, or previous participation in a pharmacotherapeutic trial, were selected. Use of any psychotropic medication or any previous head injury resulting in loss of consciousness for 5 or more minutes were used as exclusion criteria. While no participant met criteria for a neuropsychiatric disorder at enrollment, clinical assessments were still completed throughout the study to evaluate changes in mood state. In addition, self-reports of sleep habits, lifestyle, and exercise routines were also administered at baseline as well as at each study visit to assess changes in health habits during study participation. Following the completion of Visit 1 assessment, participants were given their 28-day supply of citicoline (250 mg or 500 mg) or placebo, which was randomly assigned. They were instructed to take one capsule a day every day for the next 28 days. Visit 2 occurred fourteen days after Visit 1. At Visit 2, the remaining study pills were counted and participant dosage calendars were checked to ensure compliance with the protocol. Additional neuropsychological measures and clinical assessments were administered during this visit. Participants returned for Visit 3 fourteen days later, on the 28th day of their study participation. The pill bottle and the dosage calendar were collected from each participant. Urine and blood were again obtained. Participants also participated in similar clinical and neuropsychological testing and clinical measures that were given during visit 1. The CDRS is an investigator-administered scale that are widely used as observational measures of depressive symptoms in children. The scale was administered at each of the three visits to assess presence or absence of depressive symptoms."}, "[2]": {"tested_on": "Healthy subjects, ages 13-18", "test": "Exercise and Life Style Questionnaire", "type": "in vivo, human", "parameters": "scale not given here", "conditions": "for Alcohol Q10 V1 Mean / Alcohol Q11 V1 Mean / Alcohol Q12 V1 Mean / Alcohol Total V1 Mean / Appetite Q5 V1 Mean / Appetite Q6 V1 Mean / Appetite Total V1 Mean / Exercise Q1 V1 Mean / Exercise Q2 V1 Mean / Exercise Q3 V1 Mean / Exercise Q4 V1 Mean / Exercise Total V1 Mean / Smoke Q7 V1 Mean / Smoke Q8 V1 Mean / Smoke Q9 V1 Mean / Smoke Total V1 Mean: Visit 1; for Alcohol Q10 V3 Mean / Alcohol Q11 V3 Mean / Alcohol Q12 V3 Mean / Alcohol Total V3 Mean / Appetite Q5 V3 Mean / Appetite Q6 V3 Mean / Appetite Total V3 Mean / Exercise Q1 V3 Mean / Exercise Q2 V3 Mean / Exercise Q3 V3 Mean / Exercise Q4 V3 Mean / Exercise Total V3 Mean / Smoke Q7 V3 Mean / Smoke Q8 V3 Mean / Smoke Q9 V3 Mean / Smoke Total V3 Mean: Visit 3", "excerpt": "Study participants were screened by telephone prior to study enrollment. Healthy subjects, ages 13-18, with no significant medical conditions and no history of co-morbid psychiatric disorder, current Axis I or II diagnosis, or previous participation in a pharmacotherapeutic trial, were selected. Use of any psychotropic medication or any previous head injury resulting in loss of consciousness for 5 or more minutes were used as exclusion criteria. While no participant met criteria for a neuropsychiatric disorder at enrollment, clinical assessments were still completed throughout the study to evaluate changes in mood state. In addition, self-reports of sleep habits, lifestyle, and exercise routines were also administered at baseline as well as at each study visit to assess changes in health habits during study participation. Following the completion of Visit 1 assessment, participants were given their 28-day supply of citicoline (250 mg or 500 mg) or placebo, which was randomly assigned. They were instructed to take one capsule a day every day for the next 28 days. Visit 2 occurred fourteen days after Visit 1. At Visit 2, the remaining study pills were counted and participant dosage calendars were checked to ensure compliance with the protocol. Additional neuropsychological measures and clinical assessments were administered during this visit. Participants returned for Visit 3 fourteen days later, on the 28th day of their study participation. The pill bottle and the dosage calendar were collected from each participant. Urine and blood were again obtained. Participants also participated in similar clinical and neuropsychological testing and clinical measures that were given during visit 1. The General Questionnaire and Exercise and Life Style Questionnaire are self-report questionnaires designed to assess a variety of symptoms, behaviors, and self-perceptions, including mood, complexion, exercise, food, and alcohol habits of each of the participants. The General Questionnaire was administered during each of the three study visits; the Exercise and Life Style Questionnaire was administered during each of the three study visits. The Exercise/Lifestyle Questionnaire included four summary categories (Exercise, Appetite, Smoke, and Alcohol), each of which consisted of multiple individual items. Within and between group analyses are reported below for each of the summary categories."}}, "note": "Where “and” joins values, the source holds several entries; their conditions need not be identical. Equal entries are not always repeated."}
{"smiles": "C[N+](C)(C)CCOP(=O)(O)OP(=O)([O-])OC[C@H]1O[C@@H](n2ccc(N)nc2=O)[C@H](O)[C@@H]1O", "note": "[citicoline, Cytidine 5′-diphosphocholine]", "values": [{"measurement": "CDRS, Mean", "setting": "[1]; 250 mg/day, V1 (baseline)", "result": 16.89}, {"measurement": "CDRS, Mean", "setting": "[1]; 250 mg/day, V3 (day 28)", "result": 16.22}, {"measurement": "CDRS Score, Mean", "setting": "[1]; 250 mg/day", "result": -0.67}, {"measurement": "CDRS, Mean", "setting": "[1]; 500 mg/day, V1 (baseline)", "result": 16.33}, {"measurement": "CDRS, Mean", "setting": "[1]; 500 mg/day, V3 (day 28)", "result": 16.08}, {"measurement": "CDRS Score, Mean", "setting": "[1]; 500 mg/day", "result": -0.25}, {"measurement": "Alcohol Total V3-V1 Mean", "setting": "[2]; 250 mg/day", "result": 0.00}, {"measurement": "Appetite Total V3-V1 Mean", "setting": "[2]; 250 mg/day", "result": -0.59}, {"measurement": "Exercise Total V3-V1 Mean", "setting": "[2]; 250 mg/day", "result": -0.78}, {"measurement": "Smoke Total V3-V1 Mean", "setting": "[2]; 250 mg/day", "result": -0.07}, {"measurement": "Alcohol Q10 V1 Mean", "setting": "[2]; 250 mg/day", "result": 0.07}, {"measurement": "Alcohol Q11 V1 Mean", "setting": "[2]; 250 mg/day", "result": 1.00}, {"measurement": "Alcohol Q12 V1 Mean", "setting": "[2]; 250 mg/day", "result": 1.00}, {"measurement": "Alcohol Total V1 Mean", "setting": "[2]; 250 mg/day", "result": 2.07}, {"measurement": "Appetite Q5 V1 Mean", "setting": "[2]; 250 mg/day", "result": 4.11}, {"measurement": "Appetite Q6 V1 Mean", "setting": "[2]; 250 mg/day", "result": 4.44}, {"measurement": "Appetite Total V1 Mean", "setting": "[2]; 250 mg/day", "result": 8.56}, {"measurement": "Exercise Q1 V1 Mean", "setting": "[2]; 250 mg/day", "result": 1.15}, {"measurement": "Exercise Q2 V1 Mean", "setting": "[2]; 250 mg/day", "result": 6.35}, {"measurement": "Exercise Q3 V1 Mean", "setting": "[2]; 250 mg/day", "result": 3.56}, {"measurement": "Exercise Q4 V1 Mean", "setting": "[2]; 250 mg/day", "result": 3.81}, {"measurement": "Exercise Total V1 Mean", "setting": "[2]; 250 mg/day", "result": 14.87}, {"measurement": "Smoke Q7 V1 Mean", "setting": "[2]; 250 mg/day", "result": 0.00}, {"measurement": "Smoke Q8 V1 Mean", "setting": "[2]; 250 mg/day", "result": 1.00}, {"measurement": "Smoke Q9 V1 Mean", "setting": "[2]; 250 mg/day", "result": 1.07}, {"measurement": "Smoke Total V1 Mean", "setting": "[2]; 250 mg/day", "result": 2.08}, {"measurement": "Alcohol Q10 V3 Mean", "setting": "[2]; 250 mg/day", "result": 0.07}, {"measurement": "Alcohol Q11 V3 Mean", "setting": "[2]; 250 mg/day", "result": 1.00}, {"measurement": "Alcohol Q12 V3 Mean", "setting": "[2]; 250 mg/day", "result": 1.00}, {"measurement": "Alcohol Total V3 Mean", "setting": "[2]; 250 mg/day", "result": 2.07}, {"measurement": "Appetite Q5 V3 Mean", "setting": "[2]; 250 mg/day", "result": 4.15}, {"measurement": "Appetite Q6 V3 Mean", "setting": "[2]; 250 mg/day", "result": 3.81}, {"measurement": "Appetite Total V3 Mean", "setting": "[2]; 250 mg/day", "result": 7.96}, {"measurement": "Exercise Q1 V3 Mean", "setting": "[2]; 250 mg/day", "result": 1.07}, {"measurement": "Exercise Q2 V3 Mean", "setting": "[2]; 250 mg/day", "result": 6.80}, {"measurement": "Exercise Q3 V3 Mean", "setting": "[2]; 250 mg/day", "result": 3.11}, {"measurement": "Exercise Q4 V3 Mean", "setting": "[2]; 250 mg/day", "result": 3.11}, {"measurement": "Exercise Total V3 Mean", "setting": "[2]; 250 mg/day", "result": 14.09}, {"measurement": "Smoke Q7 V3 Mean", "setting": "[2]; 250 mg/day", "result": 0.00}, {"measurement": "Smoke Q8 V3 Mean", "setting": "[2]; 250 mg/day", "result": 1.00}, {"measurement": "Smoke Q9 V3 Mean", "setting": "[2]; 250 mg/day", "result": 1.00}, {"measurement": "Smoke Total V3 Mean", "setting": "[2]; 250 mg/day", "result": 2.00}, {"measurement": "Alcohol Total V3-V1 Mean", "setting": "[2]; 500 mg/day", "result": 0.00}, {"measurement": "Appetite Total V3-V1 Mean", "setting": "[2]; 500 mg/day", "result": -0.83}, {"measurement": "Exercise Total V3-V1 Mean", "setting": "[2]; 500 mg/day", "result": -2.78}, {"measurement": "Smoke Total V3-V1 Mean", "setting": "[2]; 500 mg/day", "result": 0.00}, {"measurement": "Alcohol Q10 V1 Mean", "setting": "[2]; 500 mg/day", "result": 0.00}, {"measurement": "Alcohol Q11 V1 Mean", "setting": "[2]; 500 mg/day", "result": 1.00}, {"measurement": "Alcohol Q12 V1 Mean", "setting": "[2]; 500 mg/day", "result": 1.00}, {"measurement": "Alcohol Total V1 Mean", "setting": "[2]; 500 mg/day", "result": 2.00}, {"measurement": "Appetite Q5 V1 Mean", "setting": "[2]; 500 mg/day", "result": 3.96}, {"measurement": "Appetite Q6 V1 Mean", "setting": "[2]; 500 mg/day", "result": 3.25}, {"measurement": "Appetite Total V1 Mean", "setting": "[2]; 500 mg/day", "result": 7.21}, {"measurement": "Exercise Q1 V1 Mean", "setting": "[2]; 500 mg/day", "result": 1.17}, {"measurement": "Exercise Q2 V1 Mean", "setting": "[2]; 500 mg/day", "result": 8.50}, {"measurement": "Exercise Q3 V1 Mean", "setting": "[2]; 500 mg/day", "result": 3.71}, {"measurement": "Exercise Q4 V1 Mean", "setting": "[2]; 500 mg/day", "result": 3.75}, {"measurement": "Exercise Total V1 Mean", "setting": "[2]; 500 mg/day", "result": 17.24}, {"measurement": "Smoke Q7 V1 Mean", "setting": "[2]; 500 mg/day", "result": 0.00}, {"measurement": "Smoke Q8 V1 Mean", "setting": "[2]; 500 mg/day", "result": 1.00}, {"measurement": "Smoke Q9 V1 Mean", "setting": "[2]; 500 mg/day", "result": 1.00}, {"measurement": "Smoke Total V1 Mean", "setting": "[2]; 500 mg/day", "result": 2.00}, {"measurement": "Alcohol Q10 V3 Mean", "setting": "[2]; 500 mg/day", "result": 0.00}, {"measurement": "Alcohol Q11 V3 Mean", "setting": "[2]; 500 mg/day", "result": 1.00}, {"measurement": "Alcohol Q12 V3 Mean", "setting": "[2]; 500 mg/day", "result": 1.00}, {"measurement": "Alcohol Total V3 Mean", "setting": "[2]; 500 mg/day", "result": 2.00}, {"measurement": "Appetite Q5 V3 Mean", "setting": "[2]; 500 mg/day", "result": 3.50}, {"measurement": "Appetite Q6 V3 Mean", "setting": "[2]; 500 mg/day", "result": 2.88}, {"measurement": "Appetite Total V3 Mean", "setting": "[2]; 500 mg/day", "result": 6.38}, {"measurement": "Exercise Q1 V3 Mean", "setting": "[2]; 500 mg/day", "result": 1.13}, {"measurement": "Exercise Q2 V3 Mean", "setting": "[2]; 500 mg/day", "result": 7.54}, {"measurement": "Exercise Q3 V3 Mean", "setting": "[2]; 500 mg/day", "result": 2.96}, {"measurement": "Exercise Q4 V3 Mean", "setting": "[2]; 500 mg/day", "result": 2.75}, {"measurement": "Exercise Total V3 Mean", "setting": "[2]; 500 mg/day", "result": "14.46 and 14.48"}, {"measurement": "Smoke Q7 V3 Mean", "setting": "[2]; 500 mg/day", "result": 0.00}, {"measurement": "Smoke Q8 V3 Mean", "setting": "[2]; 500 mg/day", "result": 1.00}, {"measurement": "Smoke Q9 V3 Mean", "setting": "[2]; 500 mg/day", "result": 1.00}, {"measurement": "Smoke Total V3 Mean", "setting": "[2]; 500 mg/day", "result": 2.00}]}
